Results on eleven compounds are retold here after patent US8710198B2, “Caprazene as a novel compound and derivatives thereof, and caprazol as a novel compound and derivatives thereof” (Meiji Seika Pharma Co., Ltd., priority 2003, dated 2014).

In one test the test system is bacteria. Put plainly: Antibacterial activity. It counts as cell-based. The following applies: statement in words.
A further test concerns the target enzyme MraY (Escherichia coli, UniProt P0A6W3). The following applies: statement in words.
The test system of a further test is Micrococcus luteus FDA16. Put plainly: Minimum growth inhibitory concentration on agar culture medium by serial dilution method (Japanese Society of Chemotherapy). It counts as cell-based. An outline of the steps:
(§1)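 MICs (mcg/ml) were determined by serial dilution on agar culture medium, following the Japanese Society of Chemotherapy standard method.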

The subject of test [1] is Staphylococcus aureus FDA209P. The test is described as above. Type of test: cell-based. Put shortly: as §1
In test [2] the test system is Mycobacterium smegmatis ATCC607. The test can be described thus: Minimum growth inhibitory concentration on agar culture medium with 1% glycerine by serial dilution method. It counts as cell-based. The following applies: agar culture medium with the addition of 1% glycerine. Put shortly: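 MICs (mcg/ml) were determined by agar serial dilution following the Japanese Society of Chemotherapy standard method. For M. smegmatis the agar medium was supplemented with 1% glycerine.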

In test [3] the test system is Staphylococcus aureus ATCC607. The test can be described thus: Minimum growth inhibitory concentration on agar medium by serial dilution method, Table 14. Type of test: cell-based. As for the experimental part:
Minimum growth inhibitory concentrations (mcg/ml) of caprazene-1′″-amide derivatives of the formula (II) against some of microorganisms were measured on an agar culture medium by a serial dilution method according to the standard method as provided by Japanese Society of Chemotherapy. For the cultivation of Mycobacterium smegmatis (one of […]), however, there was used an agar culture medium with the addition of 1% glycerine (the same applies to in the following tests).
Minimum growth inhibitory concentrations (mcg/ml) of some of the derivative of the formula (VIII) against a variety of microorganisms were measured on an agar medium by a serial dilution method according to the standard method as provided by Japanese Society of Chemotherapy.

In the next test the test system is acid-fast bacteria. The following applies: statement in words, WO 01/12643A1 / EP 1211259A1; cited from earlier work.

Chain of enzyme MraY (P0A6W3 whole entry): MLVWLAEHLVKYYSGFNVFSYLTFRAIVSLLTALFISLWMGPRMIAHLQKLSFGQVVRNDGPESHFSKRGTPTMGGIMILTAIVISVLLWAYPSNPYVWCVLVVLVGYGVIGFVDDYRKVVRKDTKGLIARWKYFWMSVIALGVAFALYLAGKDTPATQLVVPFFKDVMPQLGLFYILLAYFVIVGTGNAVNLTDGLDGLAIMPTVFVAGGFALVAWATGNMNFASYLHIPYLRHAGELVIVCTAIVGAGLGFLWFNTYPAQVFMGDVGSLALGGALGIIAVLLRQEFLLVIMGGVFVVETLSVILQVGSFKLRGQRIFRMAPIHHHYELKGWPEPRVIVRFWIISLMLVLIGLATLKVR

For `CN1C(=O)[C@H](C(O[C@@H]2O[C@H](CN)[C@@H](O)[C@H]2O)[C@H]2O[C@@H](n3ccc(=O)[nH]c3=O)[C@H](O)[C@@H]2O)N(C)CC=C1C(=O)O` (stereo partly drawn) [Caprazene, caprazene], the antibacterial activity result in the test on bacteria was “no antibacterial activity”. Besides, at enzyme MraY, the “inhibitory activity against enzyme MraY” value was “inhibitory activity against enzyme MraY”.

With `CCCCCCCCC=CCCCCCCCC(=O)OC1CN(C)C(C(OC2OC(CN)C(O)C2O)C2OC(n3ccc(=O)[nH]c3=O)C(O)C2O)C(=O)N(C)C1C(=O)O` (stereo not drawn) [Compound VII-R], the “Minimum growth inhibitory concentration (mcg/ml) against bacteria Micrococcus luteus FDA16” value in the test with Micrococcus luteus FDA16 is 3.13 µg/mL. Also, the “Minimum growth inhibitory concentration (mcg/ml) against bacteria Staphylococcus aureus FDA209P” value in test [1] came out at 1.56 µg/mL. The “Minimum growth inhibitory concentration (mcg/ml) against bacteria Mycobacterium smegmatis ATCC607” value in test [2] was 6.25 µg/mL.

Take `CCCCCCCCCCN1C(=O)C(C(O)CN(C)C(C(=O)NC)C(OC2OC(CN)C(O)C2O)C2OC(n3ccc(=O)[nH]c3=O)C(O)C2O)N(C)C1=O` (stereo not drawn) [Compound VIII-E]: the “Minimum growth inhibitory concentration (mcg/ml) against bacteria Micrococcus luteus FDA16” value in the test with Micrococcus luteus FDA16 is 6.25 µg/mL. Also, the “Minimum growth inhibitory concentration (mcg/ml) against bacteria Staphylococcus aureus FDA209P” value in test [1] stood at 25 µg/mL. Further, the “Minimum growth inhibitory concentration (mcg/ml) against bacteria Staphylococcus aureus ATCC607” value in test [3] stood at 6.25 µg/mL.

As for `CCCCCCCCCCCN1C(=O)C(C(O)CN(C)C(C(=O)NC)C(OC2OC(CN)C(O)C2O)C2OC(n3ccc(=O)[nH]c3=O)C(O)C2O)N(C)C1=O` (stereo not drawn) [Compound VIII-F], the “Minimum growth inhibitory concentration (mcg/ml) against bacteria Micrococcus luteus FDA16” value with Micrococcus luteus FDA16 is 6.25 µg/mL. Besides, the “Minimum growth inhibitory concentration (mcg/ml) against bacteria Staphylococcus aureus FDA209P” value in test [1] was 25 µg/mL. Also, the “Minimum growth inhibitory concentration (mcg/ml) against bacteria Staphylococcus aureus ATCC607” value in test [3] amounted to 6.25 µg/mL.

On to `CCCCCCCCCCCCN1C(=O)C(C(O)CN(C)C(C(=O)NC)C(OC2OC(CN)C(O)C2O)C2OC(n3ccc(=O)[nH]c3=O)C(O)C2O)N(C)C1=O` (stereo not drawn) [Compound VIII-G], for which the “Minimum growth inhibitory concentration (mcg/ml) against bacteria Micrococcus luteus FDA16” value in the test on Micrococcus luteus FDA16 worked out at 6.25 µg/mL. The “Minimum growth inhibitory concentration (mcg/ml) against bacteria Staphylococcus aureus FDA209P” value in test [1] came out at 25 µg/mL. Also, the “Minimum growth inhibitory concentration (mcg/ml) against bacteria Staphylococcus aureus ATCC607” value in test [3] was determined as 12.5 µg/mL.

For the compound `CCCCCCCCCCCCC[C@@H](CC(=O)O[C@H]1CN(C)[C@@H](C(O[C@@H]2O[C@H](CN)[C@@H](O)[C@H]2O)[C@H]2O[C@@H](n3ccc(=O)[nH]c3=O)[C@H](O)[C@@H]2O)C(=O)N(C)[C@@H]1C(=O)O)OC(=O)C[C@H](C)CC(=O)O[C@@H]1O[C@H](C)[C@@H](OC)[C@@H](OC)[C@H]1OC` (stereo partly drawn) [caprazamycin A], the “antibacterial activities against acid-fast bacteria” value (“antibacterial activities” below) in the test with acid-fast bacteria is listed as “high antibacterial activities”.

Take `CCCCCCCCCCCC[C@@H](CC(=O)O[C@H]1CN(C)[C@@H]([C@H](O[C@@H]2O[C@H](CN)[C@@H](O)[C@H]2O)[C@H]2O[C@@H](n3ccc(=O)[nH]c3=O)[C@H](O)[C@@H]2O)C(=O)N(C)[C@@H]1C(=O)O)OC(=O)C[C@H](C)CC(=O)O[C@@H]1O[C@@H](C)C(OC)[C@@H](OC)[C@H]1OC` (stereo partly drawn) [caprazamycin C]: the “antibacterial activities” value with acid-fast bacteria is “high antibacterial activities”.

Take `CCCCCCCCCCC[C@@H](CC(=O)O[C@H]1CN(C)[C@@H](C(O[C@@H]2O[C@H](CN)[C@@H](O)[C@H]2O)[C@H]2O[C@@H](n3ccc(=O)[nH]c3=O)[C@H](O)[C@@H]2O)C(=O)N(C)[C@@H]1C(=O)O)OC(=O)C[C@H](C)CC(=O)O[C@@H]1O[C@H](C)[C@@H](OC)[C@@H](OC)[C@H]1OC` (stereo partly drawn) [caprazamycin E]: the “antibacterial activities” value in the test on acid-fast bacteria is “high antibacterial activities”.

`CO[C@H]1[C@@H](OC)[C@H](OC(=O)C[C@@H](C)CC(=O)O[C@@H](CCCCCCCCC(C)C)CC(=O)O[C@H]2CN(C)[C@@H](C(O[C@@H]3O[C@H](CN)[C@@H](O)[C@H]3O)[C@H]3O[C@@H](n4ccc(=O)[nH]c4=O)[C@H](O)[C@@H]3O)C(=O)N(C)[C@@H]2C(=O)O)O[C@H](C)[C@H]1OC` (stereo partly drawn) [caprazamycin F]: the “antibacterial activities” value in the test on acid-fast bacteria is “high antibacterial activities”.

Take `CN1C[C@H](O)[C@@H](C(=O)O)N(C)C(=O)[C@@H]1[C@H](O[C@@H]1O[C@H](CN)[C@@H](O)[C@H]1O)[C@H]1O[C@@H](n2ccc(=O)[nH]c2=O)[C@H](O)[C@@H]1O` [caprazol]: the antibacterial activity entry in the test on bacteria is on record as “no antibacterial activity”. Further, at enzyme MraY, the “inhibitory activity against enzyme MraY” value was “inhibitory activity against enzyme MraY”.

As to caprazamycin B, in the test with acid-fast bacteria, the “antibacterial activities” value is given as “high antibacterial activities”.
